The values that follow come from patent publication EP4186500A1, “MEK INHIBITORS FOR THE PREVENTION AND TREATMENT OF LONG COVID SYNDROME” (Atriva Therapeutics GmbH, priority 2021, dated 2023).

The experiment concerns VSV ΔG/GFP-Luc+SΔ21. The experiment is classed as cell-based.

As for `O=C(NOCC1CC1)c1ccc(F)c(F)c1Nc1ccc(I)cc1Cl` [CI-1040, reference compound], the “internalization of the VSV pseudotype virus (GFP-positive cells)” value was “reduction in the internalization of the VSV pseudotype virus”.
